Assay results from PubChem BioAssay AID602331 (Johns Hopkins Ion Channel Center, 2012).
Activity calls are given as the source filed them.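 The calls were made as follows: active = compound boosting capsaicin-evoked TRPV1 current more than 1.5 times over the capsaicin response; inactive = the rest.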

The compounds below were run against Transient receptor potential cation channel subfamily V member 1 (Homo sapiens) (UniProt Q8NER1) (assay: capsaicin-evoked TRPV1 current potentiation – QPatch automated patch clamp, HEK293 cells, confirmation (AID 602331)). Conditions: +100 mV, at 10 µM, active compounds read high.
Sequence of Transient receptor potential cation channel subfamily V member 1 (Homo sapiens) (Q8NER1 whole entry, looked up): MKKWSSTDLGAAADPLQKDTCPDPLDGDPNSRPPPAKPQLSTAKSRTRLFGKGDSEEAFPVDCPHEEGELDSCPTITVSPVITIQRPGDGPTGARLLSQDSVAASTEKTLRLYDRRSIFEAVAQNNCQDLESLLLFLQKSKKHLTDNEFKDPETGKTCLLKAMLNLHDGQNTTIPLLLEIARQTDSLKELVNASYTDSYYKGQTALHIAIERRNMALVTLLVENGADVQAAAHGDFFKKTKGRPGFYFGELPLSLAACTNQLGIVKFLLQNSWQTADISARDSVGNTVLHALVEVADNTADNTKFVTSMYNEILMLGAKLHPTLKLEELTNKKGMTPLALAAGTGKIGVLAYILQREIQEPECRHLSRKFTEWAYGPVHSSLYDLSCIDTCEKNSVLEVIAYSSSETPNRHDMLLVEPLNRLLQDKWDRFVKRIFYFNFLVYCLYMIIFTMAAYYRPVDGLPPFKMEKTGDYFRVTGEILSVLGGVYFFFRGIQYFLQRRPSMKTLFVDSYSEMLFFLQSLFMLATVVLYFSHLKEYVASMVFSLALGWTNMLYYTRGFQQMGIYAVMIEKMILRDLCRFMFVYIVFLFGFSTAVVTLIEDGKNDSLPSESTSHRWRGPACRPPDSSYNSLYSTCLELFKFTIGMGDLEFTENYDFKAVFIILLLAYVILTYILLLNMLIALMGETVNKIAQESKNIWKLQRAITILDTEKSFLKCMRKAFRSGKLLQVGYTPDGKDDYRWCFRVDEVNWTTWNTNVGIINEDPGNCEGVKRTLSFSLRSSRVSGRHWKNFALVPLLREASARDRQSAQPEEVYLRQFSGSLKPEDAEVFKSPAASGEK
With `O=C(CNc1cccc(S(=O)(=O)N2CCOCC2)c1)Nc1cccc(Br)c1` the fold potentiation was 0.827 (inactive). `O=C(COC(=O)c1ccc2c(c1)C(=O)N(Cc1ccncc1)C2=O)Nc1ccccc1[N+](=O)[O-]` showed a fold potentiation of 3.23. In the case of `CC(C)C(=O)Nc1ccc(C(=O)CN2C(=O)NC3(CCOc4ccccc43)C2=O)cc1` (configuration not stated), the fold potentiation is reported as 0.776 (inactive). With `Cc1csc2c(=O)sc(NC(=O)c3ccc(F)cc3Cl)nc12` the fold potentiation was 1.08 (inactive). With `O=c1c(/C=N/OCc2ccc(Cl)cc2Cl)c[nH]n1-c1cccc(Cl)n1` the fold potentiation was 0.906 (inactive). `CC(=O)Nc1cccc(C(=O)OCC(=O)NCc2cc(C)c(O)c(C)c2)c1` was tested, and the fold potentiation was 0.956 (inactive). Work on `CC1=C(C)/C(=N\OS(=O)(=O)c2ccc(C)cc2)C=CC1=O` yielded a fold potentiation of 1.63.
